Like-named read-outs stand apart in the source and are kept apart here.
Assays:
[1] = system: PfSec13-mut transgenic clones (3D7); experiment: Parasite survival assay, CRISPR-Cas9 PfSec13-mut transgenic clones; type: cell-based; conditions: Plasmodium falciparum
From the text: Fig. 4. […] (C) Schematic representation of the CRISPR-Cas9–based replacement strategy used to introduce a deletion of the targeted repeat regions in the PfSec13 gene. The insertion was achieved through overlap extension polymerase chain reaction (PCR) of fragments directly upstream and downstream of the target segment and subsequently formed by primer overlap extension PCR to replicate the desired deletion. […] (D) Predicted structure of the SEC13 protein highlighting the seven amino acid tandem repeat regions targeted for deletion (red). […] Data were analyzed using a Sigmoidal, 4PL (X represents concentration, n = 3, nonlinear regression, CI: 95%).
P. falciparum in vitro SYBR green fluorescence-based assays The anti-malarial activity of individual analogues were evaluated in-vitro against P. falciparum 3D7 (MRA-102, drug […]
green-I based fluorescence assay. Parasite growth rate and stages of development were determined via microscopy through Giemsa-stained smears of the cultures. Serial dilutions of the compounds ranging from 10uM-0.5nM were prepared in 96-well plates (Corning, Costar 3904) followed by […]
hematocrit added to each well. Eight wells were treated with vehicle control (DMSO) as control.
Plates were incubated in a modular incubation chamber (Billups-Rothenberg, Del Mar, CA)

[2] = system: P. falciparum NF54 gametocytes; experiment: Gametocyte development (sexual stage phenotype) assay; type: cell-based, Plasmodium falciparum; parameters: gametocytes after high dose: dose or concentration left out as unconfirmed
From the text: Parasitemia and sexual stage phenotype analyses To understand the phenotypic effects of […]
exposed to stress induced gametocyte induction followed by treatment with N-acetyl glucosamine (NAG; Sigma-Aldrich) supplemented media for 6-7 days to eliminate remaining asexual parasites.
Upon first signs of gametocyte formation observed through giemsa stained smears (5-7 post stress […]
with 3 biological replicates per condition. Culture media were replaced daily with reintroduction of the drug. Gametocyte parasitemia and proportion of the different sexual blood stages were determined by counting Giemsa-stained blood smears by light microscopy at every 24-hour time

P. falciparum [3] = experiment: Drug-drug interaction (fractional inhibitory concentration, isobologram) assay; type: cell-based, Plasmodium falciparum
From the text: Fig. 2. […] Nuclei are stained with 4’,6-diamidino-2-phenylindole (DAPI; blue). […] (B) Dose-dependent interactions between MED6-189 (blue) and various antimalarials with known mechanisms of action (red). […] The regression line represents a nonlinear regression (variable slope with four parameters), with significant differences considered if P < 0.05. […] Isobologram curves are expected to be parallel to the diagonal for additive drug pairs, concave for synergistic drug pairs, and convex for antagonistic drug pairs. […] The analysis was performed using a two-way ANOVA, n = 3, with P < 0.05 significance.

P. falciparum cultures = experiment: Exponential killing rate at IC80; type: cell-based, Plasmodium falciparum; conditions: triplicate
[4] = system: P. falciparum Pf3D70087/N9; experiment: In vivo efficacy, standard 4-day test in humanized mouse model of P. falciparum malaria; parameters: species or system NSG mice engrafted with human erythrocytes; conditions: 50 mg/kg orally, once a day for 4 days, from day 3 after infection; by the seventh day
From the text: NOD scid gamma (NSG) mice were intravenously engrafted with human red blood cells (hRBCs) daily until the percentage of hRBCs reached ~50%, at which point the mice were infected with 2 × 10^7 P. falciparum–infected erythrocytes.
Peripheral blood from P. falciparum–infected mice was stained with TER-119-phycoerythrin (marker of murine erythrocytes) and SYTO-16 (nucleic acid dye) and then analyzed by flow cytometry (FACSCalibur, BD).
Plasmodium falciparum-infected erythrocytes (P. falciparum Pf3D70087/N9).
The mice were obtained from Charles River Labs, bred specifically for
research and certified pathogen free.
NSG mice were engrafted daily with human red blood cells intravenously injected in a final
volume of 0.7 ml (50% hematocrit). Mice were engrafted during two weeks prior to P. falciparum
infection, mice achieve around 60% of human red blood cells in mice peripheral blood.
P. falciparum infections were performed by intravenous inoculation. All mice were randomly
assigned to their corresponding treatment.
mg/kg per day for four consecutive days. […] In all cases, parasitemia was assessed in samples from peripheral blood obtained at days 3, 4, 5, 6, and 7 after infection. Fresh samples of peripheral blood from P. falciparum-infected mice were stained with TER-119-Phycoerythrine (marker of murine erythrocytes) and SYTO-16 (nucleic acid dye) and then analyzed by flow cytometry (FACSCalibur, BD).

P. falciparum [5] = conditions: several P. falciparum drug-sensitive and drug-resistant strains; earlier study; read-out: IC50 (median inhibitory concentration); cited from earlier work

`[C-]#[N+][C@]1(C)CC[C@H]2[C@@H]([C@@H](C(C)C)CC[C@]2(C)[N+]#[C-])[C@H]1O` [MED6-189] gave an IC50 ([1]; 3D7, Sec13 mut-A) of 59.8 nM, an IC50 ([1]; 3D7, Sec13 mut-B) of 53.5 nM and an IC50 ([1]; 3D7, Sec13 mut-C) of 49.5 nM. For the same compound, the IC50 ([1]; 3D7, Sec13 mut-D) was 72.9 nM, the IC50 ([1]; 3D7, read-out: IC50 range, four PfSec13-mut transgenic clones) was 50 to 73 nM and the “(%) Gametocyte MED6-189 (average)” value ([2]; 300nM, day 1 post drug introduction) was 0%. For the same compound, the “(%) Gametocyte MED6-189 (average)” value ([2]; 300nM, day 2 post drug introduction) was 0.1035%, the “(%) Gametocyte MED6-189 (average)” value ([2]; 300nM, day 3 post drug introduction) was 0.55% and the “% Change of gametocytemia” value ([2]; 300nM, day 4) was 100%. The “(%) Gametocyte MED6-189 (average)” value ([2]; 300nM, day 4 post drug introduction) was 1.5%, the “(%) Gametocyte MED6-189 (average)” value ([2]; 300nM, day 5 post drug introduction) was 3.175% and the “(%) Gametocyte MED6-189 (average)” value ([2]; 300nM, day 6 post drug introduction) was 2.102%. For the same compound, the “(%) Gametocyte MED6-189 (average)” value ([2]; 300nM, day 7 post drug introduction) was 1.15%, the “(%) Gametocyte MED6-189 (average)” value ([2]; 300nM, day 8 post drug introduction) was 1.35% and the “(%) Gametocyte MED6-189 (average)” value ([2]; 300nM, day 9 post drug introduction) was 1.25%. The “inhibition of early gametocyte development vs controls” value ([2]; 300 nM, stage III: days 4 to 6) was ~ 62%, the “gametocytes after high dose” value ([2]; early stages of gametocyte development, after 48 hours of drug treatment) was “no quantifiable gametocytes were observed” and the “effect on mature-stage gametocytes” value ([2]; stage V) was “little to no effect”. The FIC score (P. falciparum [3]; MED6-189 in combination with atovaquone (additive)) was 0.91 ± 0.2, the FIC score (P. falciparum [3]; MED6-189 in combination with chloroquine (additive)) was 1.71 ± 0.4 and the “Exponential killing rate k = (1/t)* log10(N0/Nt)” value (P. falciparum cultures; at IC80, 48 HPS) was 0.008801. The “Exponential killing rate k = (1/t)* log10(N0/Nt)” value (P. falciparum cultures; at IC80, 72 HPS) was 0.007941, the “Exponential killing rate k = (1/t)* log10(N0/Nt)” value (P. falciparum cultures; at IC80, 100 HPS) was 0.0183 and the “reduction in parasitemia in the peripheral blood” value [4] was over 90%. The IC50 (P. falciparum [5]) was under 50 nM.

— paper PMC11793105, “A kalihinol analog disrupts apicoplast function and vesicular trafficking in P. falciparum malaria” (Science (New York, N.Y.), 2024)
